Assay results taken from ChEMBL document CHEMBL1201862, “PubChem BioAssay data set” (2004).
Activity calls are given as the source filed them.

Legend:
[1] = A549 cell cytotoxicity, dose response, cytotoxicity control, plate reader, cherry-pick, antagonist series (AID 743412); format: functional, cell-based
[2] = HepG2 cell cytotoxicity, dose response, cytotoxicity control, plate reader, cherry-pick, antagonist series (AID 743416); format: functional, cell-based
[3] = LGR2 antagonists, dose response, cell-based, HEK293, CRE-luciferase reporter, cherry pick, set 2 (AID 743343); format: functional;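 further: transfected cells were stimulated with diluted bursicon conditioned medium after compound addition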
[4] = MC4R antagonists, dose response, counter-screen for LGR2 antagonist project, cell-based, plate reader, cherry pick (AID 743444); format: functional;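 further: transfected HEK 293 cells stimulated with alpha-MSH peptide; potency of inhibitors of the alpha-MSH evoked signal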
[5] = HEK293 cell cytotoxicity, dose response, cytotoxicity control, plate reader, cherry-picked samples (AID 743446); format: functional, cell-based
[6] = target: T1, Oxysterols receptor LXR-beta (Homo sapiens, UniProt P55055); format: functional, cell-based
T1 sequence (P55055 whole entry): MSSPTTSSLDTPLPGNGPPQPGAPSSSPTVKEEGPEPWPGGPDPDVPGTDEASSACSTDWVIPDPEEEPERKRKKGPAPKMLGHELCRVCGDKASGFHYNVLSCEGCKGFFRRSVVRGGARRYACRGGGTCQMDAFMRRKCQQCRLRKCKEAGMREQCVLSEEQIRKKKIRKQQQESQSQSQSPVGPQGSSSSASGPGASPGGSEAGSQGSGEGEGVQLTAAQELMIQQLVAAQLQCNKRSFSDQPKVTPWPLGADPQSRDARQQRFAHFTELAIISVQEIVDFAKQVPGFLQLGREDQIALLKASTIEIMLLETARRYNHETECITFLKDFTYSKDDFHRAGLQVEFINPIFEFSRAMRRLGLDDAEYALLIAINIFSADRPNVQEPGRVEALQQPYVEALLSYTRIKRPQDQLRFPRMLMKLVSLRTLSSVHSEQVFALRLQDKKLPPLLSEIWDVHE

[7] = inhibitors of intracellular T. cruzi replication, confirmation, NIH3T3 host cells, beta-gal luminescence (AID 2044); format: functional, cell-based;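 further: intracellular parasites grown in NIH/3T3 mouse fibroblasts as host cells; luminescent beta-galactosidase reporter signal from transgenic T. cruzi replicating inside host cells; inhibitors lower the luminescence signal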
[8] = cytotoxicity toward NIH3T3 fibroblasts, dose response, counter-screen, cell-based, ATP luminescence, mouse fibroblasts (AID 2010); format: functional;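 further: cells exposed to compound for about 90 hours before reading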
[9] = Luminescence-based cell-based high throughput dose response assay to identify activators of the DAF-12 from the parasite S. stercoralis (ssDAF-12).; format: functional
[10] = target: T1, Oxysterols receptor LXR-beta; experiment: LXR agonists, Gal4 luciferase reporter, dose response, counter-screen for ssDAF-12 agonist project, cell-based, luminescence, HEK293, S. stercoralis campaign (AID 720737); format: functional; settings: read-out: IC50 (the source's name)
[11] = A375 melanoma cell viability loss, dose response, counter-screen for MITF inhibitor project, CellTiter-Glo luminescence, dry powder, set 4 (AID 624364); format: functional, cell-based; settings: A-375;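 further: A375 melanoma cells are MITF independent so this is a counter screen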
[12] = A375 melanoma cell cytotoxicity, dose response, counter-screen for MITF inhibitor project, CellTiter-Glo luminescence, dry powder, set 2 (AID 624489); format: functional, cell-based; settings: A-375;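 further: actives are compounds lowering A375 viability meaning general cytotoxicity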
Large T antigen = Large T antigen (Simian virus 40, UniProt P03070); format: functional, Betapolyomavirus macacae;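 further: Confirmatory-stage PubChem screen for compounds that inhibit SV40 T antigen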
Sequence of Large T antigen (P03070 whole entry): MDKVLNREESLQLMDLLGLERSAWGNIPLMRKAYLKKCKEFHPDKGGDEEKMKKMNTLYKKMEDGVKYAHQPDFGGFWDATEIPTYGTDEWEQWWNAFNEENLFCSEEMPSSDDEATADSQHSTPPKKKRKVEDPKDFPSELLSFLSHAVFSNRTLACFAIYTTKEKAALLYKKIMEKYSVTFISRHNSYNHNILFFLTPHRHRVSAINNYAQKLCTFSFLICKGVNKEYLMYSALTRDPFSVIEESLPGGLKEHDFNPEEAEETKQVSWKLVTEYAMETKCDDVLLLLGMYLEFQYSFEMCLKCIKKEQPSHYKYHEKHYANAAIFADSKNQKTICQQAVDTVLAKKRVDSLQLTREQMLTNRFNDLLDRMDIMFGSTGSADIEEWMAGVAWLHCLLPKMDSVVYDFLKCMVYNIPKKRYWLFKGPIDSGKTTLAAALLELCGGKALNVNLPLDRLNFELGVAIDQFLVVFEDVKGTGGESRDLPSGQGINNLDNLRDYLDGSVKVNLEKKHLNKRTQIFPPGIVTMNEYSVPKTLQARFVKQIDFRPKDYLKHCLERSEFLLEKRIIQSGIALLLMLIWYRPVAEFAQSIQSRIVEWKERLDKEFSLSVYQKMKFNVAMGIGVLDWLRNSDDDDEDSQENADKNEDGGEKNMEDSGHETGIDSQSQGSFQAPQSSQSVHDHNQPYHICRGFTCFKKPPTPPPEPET

[13] = target: T1, Oxysterols receptor LXR-beta; format: functional, cell-based; remark: listed apart in the source
Prothrombin = Prothrombin (Homo sapiens, UniProt P00734); experiment: Thrombin 1536 HTS Dose Response Confirmation. [Related pubchem assays: 1046 (Thrombin 1536 HTS; hits were confirmed in this assay)]; format: functional
Estrogen receptor = target: T2, Estrogen receptor (Homo sapiens, UniProt P03372);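 further: potency for inhibiting coactivator peptide recruitment to the receptor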
T2 sequence (P03372 whole entry): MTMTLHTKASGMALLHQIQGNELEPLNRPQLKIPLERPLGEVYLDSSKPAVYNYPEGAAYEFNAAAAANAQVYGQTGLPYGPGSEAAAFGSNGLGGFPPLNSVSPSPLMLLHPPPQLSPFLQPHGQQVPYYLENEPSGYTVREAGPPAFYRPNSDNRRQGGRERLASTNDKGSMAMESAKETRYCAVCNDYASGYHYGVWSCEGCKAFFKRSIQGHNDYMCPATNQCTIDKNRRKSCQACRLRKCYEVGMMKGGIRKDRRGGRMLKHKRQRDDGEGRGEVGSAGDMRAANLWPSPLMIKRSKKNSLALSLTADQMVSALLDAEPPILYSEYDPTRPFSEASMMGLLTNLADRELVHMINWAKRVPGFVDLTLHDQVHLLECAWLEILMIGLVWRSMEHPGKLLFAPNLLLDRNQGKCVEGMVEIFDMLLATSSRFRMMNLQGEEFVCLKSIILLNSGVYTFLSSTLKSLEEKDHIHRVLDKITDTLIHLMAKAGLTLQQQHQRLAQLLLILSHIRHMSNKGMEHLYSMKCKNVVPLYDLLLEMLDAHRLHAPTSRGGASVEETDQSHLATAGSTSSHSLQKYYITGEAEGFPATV

Estrogen receptor beta [14] = target: T3, Estrogen receptor beta (Homo sapiens, UniProt Q92731);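 further: recombinant ER-beta bound to coactivator SRC1 peptide in presence of estradiol agonist; inhibitors block coactivator peptide binding and lower the FRET signal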
T3 sequence (Q92731 whole entry): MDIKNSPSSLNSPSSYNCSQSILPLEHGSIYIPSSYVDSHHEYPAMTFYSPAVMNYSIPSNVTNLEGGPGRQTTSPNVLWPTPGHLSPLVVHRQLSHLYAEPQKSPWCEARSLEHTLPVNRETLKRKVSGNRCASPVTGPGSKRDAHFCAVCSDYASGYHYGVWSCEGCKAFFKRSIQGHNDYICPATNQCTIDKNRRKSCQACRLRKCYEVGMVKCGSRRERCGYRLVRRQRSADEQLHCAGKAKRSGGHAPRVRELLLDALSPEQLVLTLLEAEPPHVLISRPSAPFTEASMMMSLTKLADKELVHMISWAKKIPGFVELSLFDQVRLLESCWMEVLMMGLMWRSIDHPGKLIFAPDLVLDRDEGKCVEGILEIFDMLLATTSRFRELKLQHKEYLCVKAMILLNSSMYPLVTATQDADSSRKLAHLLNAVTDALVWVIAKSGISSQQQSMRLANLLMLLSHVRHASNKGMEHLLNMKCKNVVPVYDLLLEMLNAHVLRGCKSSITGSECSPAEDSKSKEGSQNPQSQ

Estrogen receptor beta [15] = target: T3, Estrogen receptor beta; experiment: ERβ–SRC-3 coactivator interaction inhibitors, confirmation, orthogonal assay, biochemical, ELISA, streptavidin-HRP readout (AID 1060)
[16] = target: T4, Mannose-6-phosphate isomerase (Homo sapiens, UniProt P34949); experiment: human PMI inhibitors, high substrate, primary screen, biochemical, fluorescence intensity, high mannose 6-phosphate (AID 1220)
T4 sequence (P34949 whole entry): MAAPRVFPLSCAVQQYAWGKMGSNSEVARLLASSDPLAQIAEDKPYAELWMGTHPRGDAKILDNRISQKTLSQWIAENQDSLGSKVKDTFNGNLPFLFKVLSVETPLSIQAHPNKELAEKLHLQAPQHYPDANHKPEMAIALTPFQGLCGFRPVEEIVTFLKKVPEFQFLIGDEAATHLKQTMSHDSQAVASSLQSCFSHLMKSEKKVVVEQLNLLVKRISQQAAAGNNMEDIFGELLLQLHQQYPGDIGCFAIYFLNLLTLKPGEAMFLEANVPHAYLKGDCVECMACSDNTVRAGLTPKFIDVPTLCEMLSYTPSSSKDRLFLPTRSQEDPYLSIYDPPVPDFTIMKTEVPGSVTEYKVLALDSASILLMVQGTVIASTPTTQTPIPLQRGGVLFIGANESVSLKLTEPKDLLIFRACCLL

[17] = target: T5, Carboxy-terminal domain RNA polymerase II polypeptide A small phosphatase 1 (Homo sapiens, UniProt Q9GZU7); experiment: inhibitors of CTDSP1, concentration-response testing, biochemical assay, absorbance-based, actives from ultra-high-throughput screening (AID 540297); format: functional
T5 sequence (Q9GZU7 whole entry): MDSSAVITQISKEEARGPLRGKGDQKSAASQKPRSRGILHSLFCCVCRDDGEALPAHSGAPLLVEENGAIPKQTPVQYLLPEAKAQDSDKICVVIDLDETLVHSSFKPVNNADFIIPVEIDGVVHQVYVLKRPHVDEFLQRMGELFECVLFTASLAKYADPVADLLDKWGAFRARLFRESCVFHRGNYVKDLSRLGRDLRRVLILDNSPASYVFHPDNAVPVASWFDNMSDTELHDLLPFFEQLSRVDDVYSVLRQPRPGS

[18] = Concentration-dependent survival of SW480 colon cancer line, luminescence detection with CellTiter-Glo, half-maximal inhibitory concentration (AID 1117338); format: functional
[19] = cytotoxicity toward HCT116 cells – cell-based, CellTiter-Glo luminescence, IC50, dose response (AID 1117332); format: functional; settings: HCT-116
[20] = cytotoxicity toward Colo320 cells – cell-based, CellTiter-Glo luminescence, IC50, dose response (AID 1117334); format: functional; settings: COLO 320
[21] = CellTiter-Glo luminescent dose response of DLD-1 viability loss (AID 1117352); format: functional

In the case of `C[C@H]1CN([C@@H](C)CO)C(=O)Cc2cc(NS(=O)(=O)c3ccc(Cl)cc3)ccc2O[C@@H]1CN(C)Cc1ccc(Cl)c(Cl)c1`, the AC50 [1] is reported as 10.2 µM (active), the AC50 [2] is reported as 11.3 µM (active) and the AC50 [3] is reported as 20.4 µM (active). For the same compound, the AC50 [4] was 12.7 µM (active) and the AC50 [5] was 19.6 µM (active).
With `Cc1ccccc1N=Nc1c(O)[nH]c2ccccc12` the EC50 [6] was > 67.5 µM (inactive) and the EC50 (cells) was > 67.5 µM (inactive).
For `CCOc1ccccc1C(=O)N[C@H](C(=O)Nc1nc2c(s1)CCCC2)C(C)C`, the EC50 [7] was 1.01 µM (active), the EC50 [8] was > 60 µM (inconclusive) and the IC50 [9] was > 67.6 µM (inactive). For the same compound, the EC50 [10] was > 67.6 µM (inactive).
For `CCN1CCN(C2=C(Nc3ccccc3)C(=O)c3ccccc3C2=O)CC1`, the AC50 [11] was 46.6 µM (active) and the AC50 [12] was 25.5 µM (active).
With `CN(C)c1ccc(Nc2nc(-c3cccnc3)cs2)cc1` the IC50 (Large T antigen) was 8.54 µM (active) and the EC50 [13] was > 67.5 µM (inactive).
With `CC(C)C(=O)n1nc(-c2cccnc2)nc1NCc1ccc(F)cc1` the IC50 (Prothrombin) was 0.00567 µM (active).
With `O=S(=O)(Nc1nccs1)c1cc(Cl)ccc1Cl` the IC50 (Estrogen receptor) was > 50 µM (not active), the IC50 (Estrogen receptor beta [14]) was > 50 µM (not active) and the IC50 (Estrogen receptor beta [15]) was 78.6 µM (not active).
With `O=C(NC1=C(N2CCOCC2)C(=O)c2ccccc2C1=O)c1ccc(Br)cc1` the AC50 [11] was > 70 µM (inactive) and the AC50 [12] was 28.9 µM (active).
In the case of `CC(C)CCOc1ccc(C(=O)C[N+]2(C)CCOCC2)cc1`, the IC50 [16] is reported as > 50 µM (not active) and the IC50 [17] is reported as 9.75 µM (active).
For `c1cnc2cc3c(cc2n1)[C@@H]1CNC[C@H]3C1` [VARENICLINE], the IC50 [18] was > 6.67 µM (inactive), the IC50 [19] was > 20 µM (inactive) and the IC50 [20] was > 20 µM (inactive). For the same compound, the IC50 [21] was > 6.67 µM (inactive).
With `Fc1cccc(Cl)c1/C=N/Nc1ccccn1` the EC50 [6] was > 67.6 µM (inactive) and the EC50 (cells) was > 67.6 µM (inactive).
